# Measurements from patent US7977352B2, “Triazolopyridine compounds useful for the treatment of degenerative and inflammatory diseases” (Galapagos NV, priority 2006, dated 2011).
# Molecular target: T1, TAK1-TAB1 fusion protein (Homo sapiens, UniProt O43318)
# T1 construct: purchased Upstate 14-600
# T1 sequence (O43318 with tags, fused parts or gaps limits assumed): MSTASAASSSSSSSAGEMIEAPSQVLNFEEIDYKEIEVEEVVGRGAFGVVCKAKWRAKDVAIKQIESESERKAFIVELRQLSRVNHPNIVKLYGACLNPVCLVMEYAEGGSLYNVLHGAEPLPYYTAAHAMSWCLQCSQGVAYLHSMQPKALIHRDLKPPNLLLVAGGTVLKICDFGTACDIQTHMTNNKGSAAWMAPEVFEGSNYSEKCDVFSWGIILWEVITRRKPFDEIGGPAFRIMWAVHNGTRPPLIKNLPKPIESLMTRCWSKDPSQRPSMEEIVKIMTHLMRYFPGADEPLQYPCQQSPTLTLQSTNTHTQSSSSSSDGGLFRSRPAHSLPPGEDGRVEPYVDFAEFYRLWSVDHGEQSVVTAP
# Assay: In vitro TAK1 kinase assay
# Type: biochemical
# Settings: casein substrate, [33P]-γ-ATP, 90 minutes at 30° C., semi-quantitative score, read-out: POTENCY TAK1 (MAP3K7)
# Method in brief: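 Radiometric kinase assay with TAK1-TAB1 fusion protein (0.5 mU), casein substrate, ATP plus [^33P]-γ-ATP in MOPS pH 7.0/EDTA buffer, compounds in 3-fold dilutions. 90 min at 30 °C, stopped with phosphoric acid; casein-incorporated label captured on filter plates and counted by scintillation.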
row,SMILES,IC50 [nM]
1,"O=C(NCc1cccnc1)c1ccc(Nc2ccc(-c3cn[nH]c3)n3ncnc23)cc1 [Example 3, 4-[5-(1H-Pyrazol-4-yl)-[1,2,4]triazolo[1,5-a]pyridin-8-ylamino]-N-pyridin-3-ylmethyl-benzamide]",501 to 1000
2,"Cc1[nH]ncc1-c1ccc(Nc2ccc(N3CCOCC3)cc2)c2ncnn12 [Example 39, 5-(5-methyl-1H-pyrazol-4-yl)-N-(4-morpholin-4-ylphenyl)[1,2,4]triazolo[1,5-a]pyridin-8-amine]",1000 to 5000
3,"CN1CCN(c2ccc(Nc3ccc(-c4ccc(C(N)=O)c(F)c4)n4ncnc34)cc2)CC1 [Example 42, 2-fluoro-4-(8-{[4-(4-methylpiperazin-1-yl)phenyl]amino}[1,2,4]triazolo[1,5-a]pyridin-5-yl)benzamide]",1000 to 5000
4,"NC(=O)c1ccc(-c2ccc(Nc3ccc(N4CCOCC4)cc3)c3ncnn23)cc1 [Example 1, 4-[8-(4-Morpholin-4-yl-phenylamino)-[1,2,4]triazolo[1,5-a]pyridin-5-yl]-benzamide]",> 10000
5,"c1nc2c(Nc3ccc(N4CCOCC4)cc3)ccc(-c3cn[nH]c3)n2n1 [Example 7, (4-Morpholin-4-yl-phenyl)-[5-(1H-pyrazol-4-yl)-[1,2,4]triazolo[1,5-a]pyridin-8-yl]-amine]",501 to 1000
6,"O=C(NCc1cccnc1)c1ccc(Nc2ccc(-c3cn[nH]c3)n3ncnc23)cc1 [Example 37, 4-{[5-(1H-pyrazol-4-yl)[1,2,4]triazolo[1,5-a]pyridin-8-yl]amino}-N-(pyridin-3-ylmethyl)benzamide]",501 to 1000
7,"CN1CCN(c2ccc(Nc3ccc(-c4cc[nH]c(=O)c4)n4ncnc34)cc2)CC1 [Example 4, 4-{8-[4-(4-Methyl-piperazin-1-yl)-phenylamino]-[1,2,4]triazolo[1,5-a]pyridin-5-yl}-1H-pyridin-2-one]",501 to 1000
8,"O=C(NCc1cccnc1)c1ccc(Nc2ccc(-c3cc[nH]c(=O)c3)n3ncnc23)cc1 [Example 5, 4-[5-(2-oxo-1,2-dihydro-pyridin-4-yl)-[1,2,4]triazolo[1,5-a]pyridin-8-ylamino]-N-pyridin-3-ylmethyl-benzamide]",501 to 1000
9,"CN1CCN(c2ccc(Nc3ccc(-c4cn[nH]c4)n4ncnc34)cc2)CC1 [Example 36, N-[4-(4-methylpiperazin-1-yl)phenyl]-5-(1H-pyrazol-4-yl)[1,2,4]triazolo[1,5-a]pyridin-8-amine]",< 500
10,"O=C(NCc1cccnc1)c1ccc(Nc2ccc(-c3cc[nH]c(=O)c3)n3ncnc23)cc1 [Example 41, 4-{[5-(2-oxo-1,2-dihydropyridin-4-yl)[1,2,4]triazolo[1,5-a]pyridin-8-yl]amino}-N-(pyridin-3-ylmethyl)benzamide]",1000 to 5000
11,"CN1CCN(c2ccc(Nc3ccc(-c4cc[nH]c(=O)c4)n4ncnc34)cc2)CC1 [Example 40, 4-(8-{[4-(4-methylpiperazin-1-yl)phenyl]amino}[1,2,4]triazolo[1,5-a]pyridin-5-yl)pyridin-2(1H)-one]",< 500
12,"Cc1[nH]ncc1-c1ccc(Nc2ccc(N3CCOCC3)cc2)c2ncnn12 [Example 8, [5-(5-Methyl-1H-pyrazol-4-yl)-[1,2,4]triazolo[1,5-a]pyridin-8-yl]-(4-morpholin-4-yl-phenyl)-amine]",1000 to 5000
13,"CN1CCN(c2ccc(Nc3ccc(-c4cn[nH]c4)n4ncnc34)cc2)CC1 [Example 2, [4-(4-Methyl-piperazin-1-yl)-phenyl]-[5-(1H-pyrazol-4-yl)-[1,2,4]triazolo[1,5-a]pyridin-8-yl]-amine]",501 to 1000
